What was measured:
[1] = test system: carrageenin-induced inflammation; assay: Carrageenin-induced inflammation; settings: Rattus norvegicus, ip, read-out: ED50, inhibition of carrageenin-induced inflammation
plasmin = settings: A. Okano et al, J. Med. Chem., Vol. 15, No. 3, 247 (1972); cited from earlier work
trypsin = biological target: T1, trypsin (Bos taurus, UniProt P00760); assay: Inhibitory effects on trypsin (hydrolysis of p-tosylarginine methyl ester); format: biochemical; settings: 37° C., 10 minutes; concentration not given
T1 sequence (P00760 24-246): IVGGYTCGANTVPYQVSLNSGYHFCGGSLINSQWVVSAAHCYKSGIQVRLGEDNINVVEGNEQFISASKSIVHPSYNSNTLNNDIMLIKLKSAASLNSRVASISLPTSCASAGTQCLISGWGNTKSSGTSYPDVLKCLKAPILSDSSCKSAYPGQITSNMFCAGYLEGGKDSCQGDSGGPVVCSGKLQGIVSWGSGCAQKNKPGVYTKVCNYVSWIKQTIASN
Protocol: In particular, inhibitory effects of the compounds on hydrolysis of p-tosylarginine methyl ester by trypsin were examined (incubated at 37° C. for 10 minutes).

urokinase = urokinase (Homo sapiens, UniProt P00749); assay: Inhibitory effects on urokinase (hydrolysis of N-acetylglycyl lysine methyl ester); format: biochemical; settings: 37° C., 10 minutes; concentration not given
Protocol: The compounds of the formula (I) have excellent inhibitory effects on protease. The inhibitory effects were determined by the following methods: Inhibitory effects of the compounds on urokinase were determined according to the method described by A. J. Joeson et al (Throm. […]. 21, 259-272 (1969)). In particular, inhibitory effects of the compounds on hydrolysis of N-acetylglycyl lysine methyl ester by urokinase were determined (incubated at 37° C. for 10 minutes).

chymotrypsin = chymotrypsin (Bos taurus, UniProt P00766); assay: Inhibitory effects on chymotrypsin (hydrolysis of N-acetyl-L-tyrosine ethyl ester); format: biochemical; settings: 37° C., 10 minutes; concentration not given
Protocol: The compounds of the formula (I) have excellent inhibitory effects on protease. The inhibitory effects were determined by the following methods: Inhibitory effects on the compounds of chymotrypsin were determined according to the method described by M. […] In particular, inhibitory effects of the compounds on hydrolysis of N-acetyl-L-tyrosine ethyl ester by chymotrypsin were examined (incubated at 37° C. for 10 minutes).

Shay ulcers = Shay ulcers (pylorus ligation); format: in vivo, Male Sprague-Dawley strain rats; settings: for Ulcer Grade 0 (number of rats): 0=no lesion; for Ulcer Grade 1 (number of rats): 1=hemorrhagic suffusion; for Ulcer Grade 2 (number of rats): 2=1-5 small ulcers (<3 mm); for Ulcer Grade 3 (number of rats): 3=many small ulcers (more than 5) or 1 ulcer of marked size; for Ulcer Grade 4 (number of rats): 4=many ulcers of marked size; for Ulcer Grade 5 (number of rats): 5=perforated ulcer
Protocol: The rats were sacrificed 18 hours later by an overdose of ether and the stomach removed. The stomach was incised along the greater curvature and the surface area of each lesion in forestomach was measured by the naked eye. […] 4=many ulcers of marked size 5=perforated ulcer The test drugs were given intraperitoneally, immediately after pylorus ligation.

[2] = test system: ileum of a guinea pig, sensitized with egg albumin; assay: Contraction of ileum of a guinea pig sensitized with egg albumin, antigen-induced; settings: 0.50 μg; with 250 μg/ml egg albumin as antigen
ileum of a guinea pig = assay: Anti-histamine effect: contraction of ileum induced by histamin dihydrochloride; settings: 1~5 μg; 10^-6 g/ml histamin dihydrochloride
thrombin = thrombin (Bos taurus, UniProt P00735); assay: Inhibitory effects on thrombin (hydrolysis of p-tosylarginine methyl ester); format: biochemical; settings: 37° C., 10 minutes; concentration not given
Protocol: The compounds of the formula (I) have excellent inhibitory effects on protease. The inhibitory effects were determined by the following methods:
Inhibitory effects of the compounds on thrombin were determined according to the method described by M. Muramatsu et al (The Journal of Biochemistry, Volume 65 (1), 17 (1969)). In particular, inhibitory effects of the compounds on hydrolysis of p-tosylarginine methyl ester by thrombin were examined (incubated at 37° C. for 10 minutes).

acetic acid ulcers = assay: Acetic acid ulcers; format: in vivo, Male Sprague-Dawley strain rats; settings: for Ulcer Grade 1 (number of rats): ulcer area 0-10 mm^2; for Ulcer Grade 2 (number of rats): ulcer area 11-20 mm^2; for Ulcer Grade 3 (number of rats): ulcer area 21-30 mm^2; for Ulcer Grade 4 (number of rats): ulcer area 31-40 mm^2; for Ulcer Grade 5 (number of rats): ulcer area >40 mm^2
Protocol: Male Sprague-Dawley strain rats, weighing about 200 g were used. Under ether anesthesia 10% acetic acid solution (0.05 ml) was injected carefully between the serous membrane and the muscle near the pylorus, and the abdomen was closed. Thereafter, the animals were maintained under conditions and administered 1 ml/100 g of each test drug dissolved or suspended in 0.5% carboxymethylcellulose solution p.o. daily×10 starting from the next day of the operation. On the 11th day, the rats were sacrificed under ether anesthesia, and the stomachs were removed. The area of the ulcer was measured and graded into 5 degrees as an ulcer index according to the following method: […]

N=C(N)NC[C@H]1CC[C@H](C(=O)Oc2ccccc2)CC1
ED50 [1]: ~200 mg/kg

N=C(N)NCC1CCC(C(=O)O)CC1 (stereo not shown) [4-guanidinomethylcyclohexanecarboxylic acid]
anti-plasmin effects (plasmin): little anti-plasmin effects

Cl.N=C(N)NC[C@H]1CC[C@H](C(=O)Oc2ccccc2)CC1 [Compound 3]
Inhibition (%) Trypsin (trypsin): 42%
Inhibition (%) Urokinase (urokinase): 52%
Inhibition (%) Chymotrypsin (chymotrypsin): 48%
Ulcer Grade 0 (number of rats) (Shay ulcers; 400 mg/kg i.p.): 11
Ulcer Grade 1 (number of rats) (Shay ulcers; 400 mg/kg i.p.): 4
Ulcer Grade 2 (number of rats) (Shay ulcers; 400 mg/kg i.p.): 5
Ulcer Grade 3 (number of rats) (Shay ulcers; 400 mg/kg i.p.): 0
Ulcer Grade 4 (number of rats) (Shay ulcers; 400 mg/kg i.p.): 0
Ulcer Grade 5 (number of rats) (Shay ulcers; 400 mg/kg i.p.): 0
inhibition of the contraction of the ileum sensitized with egg albumin [2]: inhibited completely
inhibition of the contraction of the ileum induced by histamin dihydrochloride (ileum of a guinea pig): inhibited completely
Inhibition (%) Thrombin (thrombin): 30%

Cl.NC[C@H]1CC[C@H](C(=O)Oc2ccc(CCC(=O)O)cc2)CC1 [Compound A, 4(2hydroxycarbonylethyl)phenyl trans4-aminomethylcyclohexanecarboxylate hydrochloride, reference compound]
Inhibition (%) Trypsin (trypsin): 65%
Inhibition (%) Urokinase (urokinase): 32%
Inhibition (%) Chymotrypsin (chymotrypsin): 0%
Ulcer Grade 0 (number of rats) (Shay ulcers; 150 mg/kg i.p.): 2
Ulcer Grade 1 (number of rats) (Shay ulcers; 150 mg/kg i.p.): 0
Ulcer Grade 2 (number of rats) (Shay ulcers; 150 mg/kg i.p.): 3
Ulcer Grade 3 (number of rats) (Shay ulcers; 150 mg/kg i.p.): 1
Ulcer Grade 4 (number of rats) (Shay ulcers; 150 mg/kg i.p.): 4
Ulcer Grade 5 (number of rats) (Shay ulcers; 150 mg/kg i.p.): 0
Ulcer Grade 0 (number of rats) (Shay ulcers; 300 mg/kg i.p.): 6
Ulcer Grade 1 (number of rats) (Shay ulcers; 300 mg/kg i.p.): 0
Ulcer Grade 2 (number of rats) (Shay ulcers; 300 mg/kg i.p.): 0
Ulcer Grade 3 (number of rats) (Shay ulcers; 300 mg/kg i.p.): 1
Ulcer Grade 4 (number of rats) (Shay ulcers; 300 mg/kg i.p.): 2
Ulcer Grade 5 (number of rats) (Shay ulcers; 300 mg/kg i.p.): 1
Ulcer Grade 1 (number of rats) (acetic acid ulcers; 250 mg/kg p.o. daily×10): 4
Ulcer Grade 2 (number of rats) (acetic acid ulcers; 250 mg/kg p.o. daily×10): 8
Ulcer Grade 3 (number of rats) (acetic acid ulcers; 250 mg/kg p.o. daily×10): 3
Ulcer Grade 4 (number of rats) (acetic acid ulcers; 250 mg/kg p.o. daily×10): 2
Ulcer Grade 5 (number of rats) (acetic acid ulcers; 250 mg/kg p.o. daily×10): 0
Ulcer Grade 1 (number of rats) (acetic acid ulcers; 300 mg/kg p.o. daily×10): 2
Ulcer Grade 2 (number of rats) (acetic acid ulcers; 300 mg/kg p.o. daily×10): 2
Ulcer Grade 3 (number of rats) (acetic acid ulcers; 300 mg/kg p.o. daily×10): 2
Ulcer Grade 4 (number of rats) (acetic acid ulcers; 300 mg/kg p.o. daily×10): 1
Ulcer Grade 5 (number of rats) (acetic acid ulcers; 300 mg/kg p.o. daily×10): 1
Ulcer Grade 1 (number of rats) (acetic acid ulcers; 500 mg/kg p.o. daily×10): 7
Ulcer Grade 2 (number of rats) (acetic acid ulcers; 500 mg/kg p.o. daily×10): 6
Ulcer Grade 3 (number of rats) (acetic acid ulcers; 500 mg/kg p.o. daily×10): 1
Ulcer Grade 4 (number of rats) (acetic acid ulcers; 500 mg/kg p.o. daily×10): 0
Ulcer Grade 5 (number of rats) (acetic acid ulcers; 500 mg/kg p.o. daily×10): 1
Inhibition (%) Thrombin (thrombin): 30%

NC[C@H]1CC[C@H](C(=O)O)CC1 [Tranexamic acid, trans-4-aminomethylcyclohexane carboxylic acid]
anti-plasmin effects (plasmin): excellent anti-plasmin effects

Source: patent US4348410A, “Cyclohexane carboxylic acid derivatives” (Nippon Chemiphar Co., Ltd., priority 1979, dated 1982)
